Measured values reported in patent US11452758B2, “Antimicrobial peptide derived from LL37 peptide and uses thereof” (INDUSTRY-ACADEMIC COOPERATION FOUNDATION, CHOSUN UNIVERSITY, priority 2018, dated 2022).
In brackets after ≈: the same amount, converted by molar mass. Where two headings read alike, the source gives them in different places. Where a SMILES comes first, the peptide text is derived from it.

Tests used:
[1] = system: L. monocytogenes KCTC 3710; format: cell-based, Listeria monocytogenes
Description: (§1) To compare the antimicrobial activity among the peptides produced by the method of Example 1, the inventors of the present invention measured the minimal growth inhibitory concentration (MIC), which is minimum concentration of the peptide not allowing any […] of bacterial cells.
(§2) Specifically, the bacterial strains described in the following Table 2 were purchased and cultured to a mid-log phase in MHB (Mueller Hinton Broth) medium. Then, after dilution to bacterial cell concentration of 2×10^5 cells/50 μl, the cells were inoculated to a microtiter plate (NUNC, USA). Thereafter, LL37-1, LL37-2, LL37-3 or LL37-4 peptide which has been synthesized in Example 1 above was subjected to serial dilution, ½ times for each, in a 96-well plate. After adding the peptides in an amount of 50 μl to the cell plate, the cells were cultured for 18 hours at 37° C. By using a microtiter plate reader (Merck Elisa reader, Germany), the absorbance was measured at a wavelength of 600 nm to determine the MIC value of each bacterial strain. As a control group, LL37 as a mother peptide was used and subjected to the same process as above to determine the MIC value of each strain.

[2] = system: E. coli ATCC 25922; format: cell-based, Escherichia coli
Description: as §1, §2

[3] = system: S. aureus ATCC 25923; format: cell-based, Staphylococcus aureus
Description: as §1, §2

[4] = system: A. baumannii #2; format: cell-based, Acinetobacter baumannii
Description: as §1, §2

[5] = system: A. baumannii #13; format: cell-based, Acinetobacter baumannii
Description: as §1, §2

[6] = system: A. baumannii KCTC 2508; format: cell-based, Acinetobacter baumannii
Description: as §1, §2

[7] = system: A. baumannii #11; format: cell-based, Acinetobacter baumannii
Description: as §1, §2

[8] = system: A. baumannii #4; format: cell-based, Acinetobacter baumannii
Description: as §1, §2

[9] = system: A. baumannii #10; format: cell-based, Acinetobacter baumannii
Description: as §1, §2

[10] = system: A. baumannii #5; format: cell-based, Acinetobacter baumannii
Description: as §1, §2

[11] = system: S. typhimurium KCTC 1925; format: cell-based, Salmonella typhimurium
Description: as §1, §2

[12] = system: Human macrophage cells (U937) infected with Acinetobacter baumannii KCTC 2508; assay: Expression of inflammatory cytokines, Western blot and real time RT-PCR; format: cell-based; conditions: U937 infected with A. baumannii KCTC 2508, peptide added 1 hour after infection, sample after 9 hours
Procedure: To see whether or not a change in expression of inflammatory cytokines in macrophage is caused by the peptides that are prepared by the method of above Example 1, determination was made by Western blot and real time reverse transcription polymerase chain reaction.
Specifically, Acinetobacter baumannii KCTC 2508 cells were cultured to a mid-log phase in MHB medium, and then diluted to a cell concentration of 1×10^7 cells/ml in physiological saline. Human macrophage cells (U937) were then infected with the resulting cells in time-dependent manner to yield the first sample, and another macrophage cells were infected with Acinetobacter baumannii KCTC 2508 cells, which have been diluted to a concentration of 1×10^7 cells, and added with, 1 hour after the infection, mother peptide LL37 or the homologous peptide to collect the second sample after 9 hours. Both collected samples were treated with cell lysis buffer to obtain the supernatant (sup) and pellet (lysate). Thereafter, by Western blot and real time reverse transcription polymerase chain reaction, a change in the expression level of inflammatory cytokines was examined.

[13] = system: Acinetobacter baumannii KCTC 2508; assay: Low vacuum scanning electron microscopy (membrane-disrupting property); format: cell-based; conditions: peptide at MIC concentration, 30 minutes at 37° C.
Procedure: To specifically determine the degree of antimicrobial activity of the synthesized peptides of the present invention, the influence of mother peptide LL37 and homologous peptides LL37-1, LL37-2, LL37-3 and LL37-4 on bacteria membrane, i.e., membrane-disrupting property, was determined by low vacuum scanning electron microscopy.
Specifically, Acinetobacter baumannii KCTC 2508 cells were cultured to a mid-log phase in MHB medium, and then diluted to a cell concentration of 2×10^7 cells/ml in physiological saline containing 10% MHB medium. […] After that, by using 2.5% glutaraldehyde, the bacterial cells were fixed for 30 minutes at room temperature and then for 12 hours at 4° C. After carrying out washing with buffer, the cells were fixed again with […] and dehydrated in stepwise manner by using ethanol. After the dehydration, platinum coating was carried out and the cells were observed by low vacuum scanning electron microscopy.

[14] = system: A. baumannii KCTC 2508; assay: Antibiofilm activity, Crystal violet staining; format: cell-based, Acinetobacter baumannii; conditions: 24 hours
Procedure: (§3) To compare the antimicrobial activity among the peptides produced by the method of Example 1, the inventors of the present invention measured the biofilm inhibitory concentration value of the peptide for not allowing any dissociation of bacterial cells.
(§4) Specifically, among the bacterial strains described in the above Table 2, bacteria showing the most favorable biofilm forming were cultured to a mid-log phase in a medium with suitable composition. Then, after dilution to bacterial cell concentration of 1×10^6 cells/50 μl, the cells were inoculated to a microtiter plate. Thereafter, LL37, LL37-1, LL37-2, LL37-3 or LL37-4 peptide which has been synthesized in Example 1 above was diluted, 1/10 times for each, with 10 mM phosphate buffered physiological saline (PBS) in a 96-well plate. After adding the peptide (50 μl) to each well of the plate, the cells were cultured for 24 hours at 37° C. After removing the supernatant completely, the cells were fixed with 100% methanol for 15 minutes and stained for 1 hour with Crystal violet staining solution followed by rinsing for 3 times. Then, after dissolving in 95% ethanol, the absorbance was measured at a wavelength of 595 nm by using a microtiter plate reader to determine the biofilm minimal inhibitory concentration value of each bacterial strain.

[15] = system: A. baumannii #10; assay: Antibiofilm activity, Crystal violet staining; format: cell-based, Acinetobacter baumannii; conditions: 24 hours
Procedure: as §3, §4

[16] = system: A. baumannii #5; assay: Antibiofilm activity, Crystal violet staining; format: cell-based, Acinetobacter baumannii; conditions: 24 hours
Procedure: as §3, §4

Row | SMILES | Minimal inhibitory concentration ([1]; KCTC 3710, 18 h) [µM] | Minimal inhibitory concentration ([2]; ATCC 25922, 18 h) [µM] | Minimal inhibitory concentration ([3]; ATCC 25923, 18 h) [µM] | expression level of HMGB-1 and late cytokine (IL-1b and TNF-α) [12] | membrane-disrupting property (scanning electron microscopy) [13] | Minimal inhibitory concentration ([4]; #2) [µM] | Minimal inhibitory concentration ([5]; #13) [µM] | Minimal inhibitory concentration ([6]; KCTC 2508, 18 h) [µM] | Minimal inhibitory concentration ([7]; #11) [µM] | Minimal inhibitory concentration ([8]; #4) [µM] | Minimal inhibitory concentration ([9]; #10) [µM] | Minimal inhibitory concentration ([10]; #5) [µM] | Minimal inhibitory concentration ([11]; KCTC 1925, 18 h) [µM] | Biofilm forming ability ([14]; peptide 2 μM) [%] | Biofilm forming ability ([14]; peptide 4 μM) [%] | Biofilm forming ability ([14]; peptide 8 μM) [%] | Biofilm forming ability ([14]; peptide 16 μM) [%] | Biofilm forming ability ([14]; peptide 32 μM) [%] | Biofilm forming ability ([15]; peptide 2 μM) [%] | Biofilm forming ability ([15]; peptide 4 μM) [%] | other results
1 | CC[C@H](C)[C@H](NC(=O)[C@H](CCCNC(=N)N)NC(=O)[C@H](CCC(N)=O)NC(=O)[C@@H](NC(=O)[C@@H](NC(=O)[C@H](CCCNC(=N)N)NC(=O)[C@H](CCCCN)NC(=O)[C@H](Cc1ccccc1)NC(=O)[C@H](CCCCN)NC(=O)[C@@H](N)CCCCN)[C@@H](C)CC)C(C)C)C(=O)N[C@@H](CCCCN)C(=O)N[C@@H](CC(=O)O)C(=O)N[C@@H](Cc1ccccc1)C(=O)N[C@@H](CC(C)C)C(=O)N[C@@H](CCCNC(=N)N)C(=O)N[C@@H](CC(N)=O)C(N)=O [LL37-2, KKFKRIVQRIKDFLRN-NH2] (H-KKFKRIVQRIKDFLRN-NH2) | – | – | – | – | – | – | – | – | – | – | – | – | – | – | – | – | – | – | – | – | Minimal inhibitory concentration ([1]; L. monocytogenes KCTC 3710, MHB, 18 hours at 37° C.): 16 µM (≈ 33.4 µg/mL); Minimal inhibitory concentration ([2]; E. coli ATCC 25922, MHB, 18 hours at 37° C.): 16 µM (≈ 33.4 µg/mL); Minimal inhibitory concentration ([3]; S. aureus ATCC 25923, MHB, 18 hours at 37° C.): 2 µM (≈ 4.18 µg/mL); Minimal inhibitory concentration ([4]; A. baumannii #2, tolerance to antibiotics): 2 µM (≈ 4.18 µg/mL); Minimal inhibitory concentration ([5]; A. baumannii #13, tolerance to antibiotics): 2 µM (≈ 4.18 µg/mL); Minimal inhibitory concentration of antimicrobial peptide ([6]; A. baumannii KCTC 2508, Control (MIC values of Table 3, no added ions)): 4 µM; Minimal inhibitory concentration ([6]; A. baumannii KCTC 2508, MHB, 18 hours at 37° C.): 4 µM (≈ 8.35 µg/mL); Minimal inhibitory concentration ([7]; A. baumannii #11, tolerance to antibiotics): 2 µM (≈ 4.18 µg/mL); Minimal inhibitory concentration ([8]; A. baumannii #4, tolerance to antibiotics): 2 µM (≈ 4.18 µg/mL); Minimal inhibitory concentration ([9]; A. baumannii #10, tolerance to antibiotics): 2 µM (≈ 4.18 µg/mL); Minimal inhibitory concentration ([10]; A. baumannii #5, tolerance to antibiotics): 2 µM (≈ 4.18 µg/mL); Minimal inhibitory concentration ([11]; S. typhimurium KCTC 1925, MHB, 18 hours at 37° C.): 4 µM (≈ 8.35 µg/mL)
2 | CC[C@H](C)[C@H](NC(=O)[C@H](CCCNC(=N)N)NC(=O)[C@H](CCC(N)=O)NC(=O)[C@@H](NC(=O)[C@@H](NC(=O)[C@H](CCCNC(=N)N)NC(=O)[C@H](CCCCN)NC(=O)[C@H](Cc1ccccc1)NC(=O)[C@H](CCC(=O)O)NC(=O)[C@@H](N)CCCCN)[C@@H](C)CC)C(C)C)C(=O)N[C@@H](CCCCN)C(=O)N[C@@H](CCCCN)C(=O)N[C@@H](Cc1ccccc1)C(=O)N[C@@H](CC(C)C)C(=O)N[C@@H](CCCNC(=N)N)C(=O)N[C@@H](CC(N)=O)C(N)=O [LL37-3, KEFKRIVQRIKKFLRN-NH2] (H-KEFKRIVQRIKKFLRN-NH2; N-terminus assumed) | 64 (≈ 135 µg/mL) | 32 (≈ 67.3 µg/mL) | 4 (≈ 8.41 µg/mL) | increase in expression level of HMGB-1 and late cytokine is lower | disruption of bacteria membrane | 4 (≈ 8.41 µg/mL) | 2 (≈ 4.21 µg/mL) | 16 (≈ 33.6 µg/mL) | 2 (≈ 4.21 µg/mL) | 4 (≈ 8.41 µg/mL) | 2 (≈ 4.21 µg/mL) | 4 (≈ 8.41 µg/mL) | 8 (≈ 16.8 µg/mL) | 52 | 41 | 29 | 25 | 23 | 61 | 38 | Biofilm forming ability ([15]; peptide 8 μM): 34%; Biofilm forming ability ([15]; peptide 16 μM): 32%; Biofilm forming ability ([15]; peptide 32 μM): 30%; Biofilm forming ability ([16]; peptide 2 μM): 60%; Biofilm forming ability ([16]; peptide 4 μM): 62%; Biofilm forming ability ([16]; peptide 8 μM): 26%; Biofilm forming ability ([16]; peptide 16 μM): 24%; Biofilm forming ability ([16]; peptide 32 μM): 20%
3 | CC[C@H](C)[C@H](NC(=O)[C@H](CCCNC(=N)N)NC(=O)[C@H](CCC(N)=O)NC(=O)[C@@H](NC(=O)[C@@H](NC(=O)[C@H](CCCNC(=N)N)NC(=O)[C@H](CCCCN)NC(=O)[C@H](Cc1ccccc1)NC(=O)[C@H](CCCCN)NC(=O)[C@@H](N)CCCCN)[C@@H](C)CC)C(C)C)C(=O)N[C@@H](CCCCN)C(=O)N[C@@H](CCCCN)C(=O)N[C@@H](Cc1ccccc1)C(=O)N[C@@H](CC(C)C)C(=O)N[C@@H](CCCNC(=N)N)C(=O)N[C@@H](CC(N)=O)C(N)=O [LL37-4, KKFKRIVQRIKKFLRN-NH2] (H-KKFKRIVQRIKKFLRN-NH2; N-terminus assumed) | 16 (≈ 33.6 µg/mL) | 16 (≈ 33.6 µg/mL) | 2 (≈ 4.2 µg/mL) | increase in expression level of HMGB-1 and late cytokine is lower | disruption of bacteria membrane | 2 (≈ 4.2 µg/mL) | 2 (≈ 4.2 µg/mL) | 4 (≈ 8.41 µg/mL) | 2 (≈ 4.2 µg/mL) | 2 (≈ 4.2 µg/mL) | 2 (≈ 4.2 µg/mL) | 2 (≈ 4.2 µg/mL) | 4 (≈ 8.41 µg/mL) | 48 | 32 | 28 | 23 | 22 | 49 | 37 | membrane disruption compared to LL37-1 and LL37-3 (scanning electron microscopy) [13]: disrupted more; Minimal inhibitory concentration of antimicrobial peptide ([6]; KCTC 2508): 4 µM; Biofilm forming ability ([15]; peptide 8 μM): 33%; Biofilm forming ability ([15]; peptide 16 μM): 33%; Biofilm forming ability ([15]; peptide 32 μM): 30%; Biofilm forming ability ([16]; peptide 2 μM): 74%; Biofilm forming ability ([16]; peptide 4 μM): 59%; Biofilm forming ability ([16]; peptide 8 μM): 49%; Biofilm forming ability ([16]; peptide 16 μM): 22%; Biofilm forming ability ([16]; peptide 32 μM): 20%
